{"source": "paper PMC3507690", "about": "“A Single Glycine-Alanine Exchange Directs Ligand Specificity of the Elephant Progestin Receptor” (PLoS ONE, 2012)", "target": "T1, hPR LBD (initial construct) (Homo sapiens, UniProt P06401)", "T1 construct": "gene PGR; pET3d, E. coli BL21 lysate; cloned from HOSE cell cDNA", "T1 sequence (P06401 634-933)": "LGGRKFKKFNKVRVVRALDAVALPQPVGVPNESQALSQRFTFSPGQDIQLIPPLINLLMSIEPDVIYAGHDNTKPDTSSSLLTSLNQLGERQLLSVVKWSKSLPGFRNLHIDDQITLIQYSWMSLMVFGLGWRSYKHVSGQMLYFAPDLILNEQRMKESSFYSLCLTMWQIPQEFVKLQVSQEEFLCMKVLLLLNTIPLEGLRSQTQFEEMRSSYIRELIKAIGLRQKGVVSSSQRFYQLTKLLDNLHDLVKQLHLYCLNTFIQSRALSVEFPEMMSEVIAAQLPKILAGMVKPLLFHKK", "assay": "competitive radioligand binding, charcoal separation, bacterial lysate", "settings": "1 nM [3H]-progesterone, 16 h, 4 °C; relative binding affinity compared to progesterone"}
{"smiles": "CC(=O)[C@H]1CC[C@H]2[C@@H]3CC[C@H]4CC(=O)CC[C@]4(C)[C@H]3CC[C@]12C", "note": "[DHP, 5α-dihydroprogesterone]", "values": [{"measurement": "RBA", "value": "relative binding affinity (RBA) of DHP compared to progesterone measured by competitive binding assays"}]}
